In the supplement of paper PMC11451515:

Tested on: P12-Ichikawa
Assay: cell viability relative to DMSO control; higher = less cytotoxic
Conditions: 48 h
In short: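 Leukemia cells (NOMO1 or SEM, 500 cells/well; P12-Ichikawa, 1000 cells/well) were seeded in 5 μl in 1536-well plates after at least four passages of adaptation to each medium. They received library compounds in DMSO by pin dosing, 11 threefold points from 47 μM to 0.79 nM. Luminescence with CellTiter-Glo One was read after 48 h at 37°C. Viability is stated per plate relative to DMSO wells, with cell-free wells as background.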

[1] = HPLM + 10% dialyzed FBS, 0.000781 µM
[2] = HPLM + 10% dialyzed FBS, 0.00234 µM
[3] = HPLM + 10% dialyzed FBS, 0.00702 µM
[4] = HPLM + 10% dialyzed FBS, 0.0211 µM
[5] = HPLM + 10% dialyzed FBS, 0.0632 µM
[6] = HPLM + 10% dialyzed FBS, 0.19 µM
[7] = HPLM + 10% dialyzed FBS, 0.569 µM
[8] = HPLM + 10% dialyzed FBS, 1.71 µM
[9] = HPLM + 10% dialyzed FBS, 5.12 µM
[10] = HPLM + 10% dialyzed FBS, 15.4 µM
[11] = HPLM + 10% dialyzed FBS, 46.1 µM
[12] = RPMI 5 mM glucose + 10% FBS, 0.000781 µM
[13] = RPMI 5 mM glucose + 10% FBS, 0.00234 µM
[14] = RPMI 5 mM glucose + 10% FBS, 0.00702 µM
[15] = RPMI 5 mM glucose + 10% FBS, 0.0211 µM
[16] = RPMI 5 mM glucose + 10% FBS, 0.0632 µM
[17] = RPMI 5 mM glucose + 10% FBS, 0.19 µM
[18] = RPMI 5 mM glucose + 10% FBS, 0.569 µM
[19] = RPMI 5 mM glucose + 10% FBS, 1.71 µM
[20] = RPMI 5 mM glucose + 10% FBS, 5.12 µM
[21] = RPMI 5 mM glucose + 10% FBS, 15.4 µM
[22] = RPMI 5 mM glucose + 10% FBS, 46.1 µM
[23] = RPMI 5 mM glucose + 10% dialyzed FBS, 0.000781 µM
[24] = RPMI 5 mM glucose + 10% dialyzed FBS, 0.00234 µM
[25] = RPMI 5 mM glucose + 10% dialyzed FBS, 0.00702 µM
[26] = RPMI 5 mM glucose + 10% dialyzed FBS, 0.0211 µM
[27] = RPMI 5 mM glucose + 10% dialyzed FBS, 0.0632 µM
[28] = RPMI 5 mM glucose + 10% dialyzed FBS, 0.19 µM
[29] = RPMI 5 mM glucose + 10% dialyzed FBS, 0.569 µM
[30] = RPMI 5 mM glucose + 10% dialyzed FBS, 1.71 µM
[31] = RPMI 5 mM glucose + 10% dialyzed FBS, 5.12 µM
[32] = RPMI 5 mM glucose + 10% dialyzed FBS, 15.4 µM
[33] = RPMI 5 mM glucose + 10% dialyzed FBS, 46.1 µM

| Compound | cell viability [1] [%] | cell viability [2] [%] | cell viability [3] [%] | cell viability [4] [%] | cell viability [5] [%] | cell viability [6] [%] | cell viability [7] [%] | cell viability [8] [%] | cell viability [9] [%] | cell viability [10] [%] | cell viability [11] [%] | cell viability [12] [%] | cell viability [13] [%] | cell viability [14] [%] | cell viability [15] [%] | cell viability [16] [%] | cell viability [17] [%] | cell viability [18] [%] | cell viability [19] [%] | cell viability [20] [%] | cell viability [21] [%] | cell viability [22] [%] | cell viability [23] [%] | cell viability [24] [%] | cell viability [25] [%] | cell viability [26] [%] | cell viability [27] [%] | cell viability [28] [%] | cell viability [29] [%] | cell viability [30] [%] | cell viability [31] [%] | cell viability [32] [%] | cell viability [33] [%] |
| --- | --- | --- | --- | --- | --- | --- | --- | --- | --- | --- | --- | --- | --- | --- | --- | --- | --- | --- | --- | --- | --- | --- | --- | --- | --- | --- | --- | --- | --- | --- | --- | --- | --- |
| C[C@@H](NCc1cc2ccccc2[nH]1)c1cccc2ccccc12 | 88.5 | 88.8 | 93.4 | 93 | 86.8 | 97 | 95.5 | 97.7 | 90 | 93.4 | 90.2 | 89.1 | 90.2 | 87.5 | 95.9 | 92.9 | 91.3 | 94.8 | 88 | 89.8 | 88.8 | 92.2 | 84.1 | 86.6 | 83.2 | 91.4 | 77.3 | 84.7 | 85.5 | 92.6 | 88.5 | 90.7 | 89.5 |
| C=C[C@H]1CN2CCC1C[C@@H]2[C@@H](O)c1ccnc2ccccc12 (stereo not given in full) | 101 | 99.5 | 95.9 | 99.6 | 100 | 92.4 | 87.7 | 93.6 | 85.8 | 90.7 | 78.2 | 93.8 | 93.4 | 99.5 | 94.7 | 103 | 90.9 | 86.4 | 92.3 | 90.8 | 83.3 | 67.8 | 101 | 89.4 | 91.7 | 96.6 | 97.2 | 92.6 | 96.5 | 81.7 | 84.5 | 81.8 | 67.9 |
| OCCNC1CCCc2c1[nH]c1ccc(-c3ccccc3)cc21 (stereo not given) | 100 | 107 | 106 | 105 | 110 | 110 | 115 | 108 | 111 | 78.4 | 16.6 | 103 | 111 | 109 | 108 | 114 | 108 | 114 | 118 | 110 | 73.5 | 18.2 | 105 | 111 | 113 | 109 | 107 | 114 | 119 | 114 | 111 | 80.4 | 28.9 |
| OC(CCN1CCCCC1)(C2CC\3CC2\C=C3)C4=CC=CC=C4 (stereo not given) | 118 | 128 | 123 | 98.1 | 131 | 122 | 134 | 135 | 126 | 123 | 126 |  |  |  |  |  |  |  |  |  |  |  | 118 | 122 | 134 | 91.4 | 133 | 127 | 123 | 134 | 127 | 126 | 130 |
| COc1ccc2c(OCc3nnc4ccc(-c5ccccc5)nn34)ccnc2c1 | 101 | 116 | 106 | 104 | 104 | 97.5 | 104 | 95.9 | 103 | 103 | 28.1 | 115 | 117 | 123 | 122 | 114 | 106 | 112 | 117 | 106 | 124 | 122 | 123 | 118 | 105 | 111 | 105 | 105 | 106 | 103 | 106 | 109 | 77.7 |
| CN1CCN(Cc2ccc(NC(=O)Nc3ccc(Oc4cc(NC(=O)C5CC5)ncn4)cc3)cc2C(F)(F)F)CC1 | 100 | 108 | 103 | 113 | 114 | 113 | 46.7 | 9.49 | 10.2 | 8.59 | 0.0522 | 105 | 110 | 117 | 121 | 122 | 132 | 44.7 | 9.59 | 8.79 | 6.05 | 0.799 | 92.4 | 113 | 111 | 121 | 122 | 123 | 35.4 | 12.8 | 11.6 | 11.8 | 0.55 |
| C[C@]12CC[C@@H]3c4ccc(O)cc4CC[C@H]3[C@@H]1CC[C@@H]2O | 116 | 111 | 113 | 106 | 112 | 116 | 105 | 102 | 100 | 88.9 | 27.1 | 118 | 112 | 115 | 115 | 105 | 111 | 112 | 108 | 107 | 105 | 20.9 | 108 | 111 | 109 | 101 | 103 | 102 | 102 | 94.3 | 94.1 | 75.5 | 28.6 |
| O=[S+]([O-])(CCSSCC[S+](=O)([O-])[O][Na])[O][Na] | 105 | 110 | 114 | 124 | 121 | 124 | 129 | 120 | 126 | 123 | 129 | 97.4 | 111 | 107 | 111 | 121 | 116 | 133 | 132 | 124 | 119 | 118 | 108 | 133 | 119 | 127 | 134 | 127 | 134 | 126 | 130 | 139 | 133 |
| CCCOc1ccc2[nH]c(NC(=O)OC)nc2c1 | 125 | 122 | 107 | 99.4 | 54.5 | 35.3 | 17.2 | 21.8 | 25.3 | 18.8 | 23.2 |  |  |  |  |  |  |  |  |  |  |  |  |  |  |  |  |  |  |  |  |  |  |
| O=[N+]([O-])c1ccc(Nc2ccccc2-c2ccccc2)c2nonc12 | 85.2 | 90.1 | 92.4 | 91.2 | 85.1 | 90.4 | 94.2 | 96.7 | 90.6 | 91 | 89.4 | 83.6 | 91.2 | 86.4 | 91.1 | 90.6 | 88 | 93.4 | 95.4 | 90.7 | 96.2 | 86.5 | 89.6 | 87.1 | 84.8 | 92.3 | 93.8 | 97.6 | 94.1 | 90.7 | 88.7 | 95.2 | 84.9 |
| O=C(O)CSCC(=O)NC1CCSC1=O (stereo not given) | 108 | 108 | 112 | 120 | 120 | 129 | 110 | 114 | 117 | 115 | 116 | 106 | 108 | 114 | 130 | 123 | 114 | 115 | 116 | 111 | 116 | 118 | 103 | 110 | 114 | 114 | 117 | 116 | 115 | 112 | 106 | 127 | 111 |
| CN(C)CC[C@H](CSc1ccccc1)Nc1ccc([S+](=O)([O-])NC(=O)c2ccc(N3CCN(Cc4ccccc4-c4ccc(Cl)cc4)CC3)cc2)cc1[N+](=O)[O-] | 118 | 123 | 120 | 110 | 115 | 97.8 | 85.4 | 56.7 | 14.9 | 7.53 | 4.59 | 127 | 116 | 116 | 115 | 120 | 115 | 108 | 79.9 | 24.2 | 12.5 | 4.92 | 124 | 128 | 124 | 124 | 119 | 117 | 95.5 | 76.1 | 15.8 | 8.77 | 4.13 |
| O=[S+]([O-])(/N=C/c1c(O)ccc2ccccc12)c1cccs1 | 109 | 113 | 116 | 120 | 120 | 120 | 117 | 122 | 124 | 103 | 84.6 | 119 | 123 | 130 | 115 | 120 | 120 | 133 | 123 | 132 | 123 | 125 | 117 | 121 | 126 | 125 | 124 | 124 | 120 | 122 | 121 | 109 | 103 |
| CN1C2=CC(=O)/C(=N/NC(N)=O)C=C2CC1S(=O)(=O)[O-].[Na+] (stereo not given) | 105 | 112 | 112 | 112 | 108 | 113 | 115 | 115 | 110 | 112 | 112 | 103 | 112 | 108 | 112 | 109 | 118 | 118 | 115 | 113 | 112 | 106 | 105 | 108 | 105 | 108 | 111 | 113 | 123 | 112 | 110 | 117 | 110 |
| COc1cccc2c(NCc3ccccc3)nc(-n3c(N)nc4ccccc43)nc12 | 99 | 103 | 108 | 107 | 108 | 112 | 109 | 111 | 94.3 | 58.3 | 8.25 | 94.8 | 108 | 95 | 115 | 111 | 103 | 111 | 110 | 114 | 63.7 | 6.11 | 106 | 100 | 111 | 99.6 | 112 | 114 | 119 | 111 | 102 | 76.6 | 10.1 |
| C[C@H](NC(=O)Cc1cc(F)cc(F)c1)C(=O)N[C@@H]1C(=O)N(C)c2ccccc2-c2ccccc21 | 105 | 118 | 113 | 116 | 113 | 38.4 | 109 | 99.5 | 6.06 | 3.41 | 1.45 | 110 | 111 | 128 | 128 | 116 | 125 | 119 | 122 | 100 | 3.68 | 2.54 | 97.7 | 111 | 112 | 113 | 118 | 117 | 113 | 115 | 84.8 | 3.93 | 1.82 |
